From patent US20060093634A1, “Personal care compositions and concentrates for making the same” (Lonza Inc., priority 2004, published 2006)

Test: Skin moisture after application of moisturizing compositions (Corneometer)
Type: in vivo
Settings: applied to skin
Protocol: Glycerol monostearate (GMS) cream moisturizing compositions containing 2% glycerin (Sample 1), 1% sodium erythorbate (Sample 2), 1% δ-gluconolactone (Sample 3), or 2% of a biodegradation prevention mixture containing 75% (by weight) sodium benzoate and 25% (by weight) sodium erythorbate were tested as follows.
The GMS cream was prepared as follows. Polyoxyethylene glyceryl monostearate, glyceryl monostearate, cetearyl alcohol, and myristyl propionate were mixed and heated to 60° C. in a first container. In four separate containers, glycerin, sodium erythorbate, δ-gluconolactone, or the aforementioned biodegradation prevention mixture were mixed with sterile deionized water and heated to 60° C. The solution in the first container was poured into each container containing glycerin, sodium erythorbate, δ-gluconolactone, or the biodegradation prevention mixture to produce the desired concentrations, e.g., 2% glycerin (w/w) (Sample 1), 1% sodium erythorbate (w/w) (Sample 2), 1% δ-gluconolactone (w/w) (Sample 3), or 2% biodegradation prevention mixture (w/w) (Sample 4). The containers were maintained at 60° C. for 10 minutes, and then allowed to cool. The pH of the solution was adjusted to pH 7 with sodium hydroxide to yield the GMS cream.
The moisturizing compositions were applied once to skin and skin moisture measurements were taken over a 7 day period following administration. […]

| Compound | Skin moisturization compared with known moisturizers such as glycerin |
| --- | --- |
| O=C1O[C@H]([C@H](O)CO)C([O-])=C1O.[Na+] [sodium erythorbate] | moisturize skin more effectively than many known moisturizers |
| O=C1O[C@H](CO)[C@@H](O)[C@H](O)[C@H]1O [δ-gluconolactone] | moisturize skin more effectively than many known moisturizers |
